As a reminder, the Km is the substrate concentration at which the rate is half of its maximum.

For one data set, the target named is T1, (UniProt A0A890JDX9).
T1 construct: gene hcdE; recombinant C-terminally His6-tagged protein
As to the kind of experiment: spectrophotometric NADPH oxidation kinetics with purified enzyme; substrate and substrate inhibitor. The format is biochemical, Pseudomonas mandelii. An excerpt:
spectrophotometric NADPH oxidation kinetics with purified enzyme; substrate and substrate inhibitor on HcdE | 7-hydroxycoumarin was likely a pseudo-competitive inhibitor characterized by the inhibition constant Ki

The test system of data set [1] is NC(=O)C1=CN([C@@H]2O[C@H](COP(=O)(O)OP(=O)(O)OC[C@H]3O[C@@H](n4cnc5c(N)ncnc54)[C@H](OP(=O)(O)O)[C@@H]3O)[C@@H](O)[C@H]2O)C=CC1. As to the kind of experiment: purified protein. Conditions: varied: cofactor.

T1 sequence (A0A890JDX9 1-376 limits assumed): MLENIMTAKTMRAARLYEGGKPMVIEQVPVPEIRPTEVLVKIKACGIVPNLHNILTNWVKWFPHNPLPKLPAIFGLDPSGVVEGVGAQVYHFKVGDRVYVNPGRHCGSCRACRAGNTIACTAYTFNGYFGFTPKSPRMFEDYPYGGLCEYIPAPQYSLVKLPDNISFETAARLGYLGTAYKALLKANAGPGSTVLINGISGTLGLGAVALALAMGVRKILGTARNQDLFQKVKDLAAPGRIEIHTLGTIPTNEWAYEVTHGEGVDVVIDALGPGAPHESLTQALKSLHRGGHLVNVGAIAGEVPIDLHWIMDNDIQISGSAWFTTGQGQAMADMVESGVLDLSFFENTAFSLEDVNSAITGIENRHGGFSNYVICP

As to `O=c1ccc2ccc(O)cc2o1` [compound 1, 7-hydroxycoumarin], the Ki at (UniProt A0A890JDX9) is 22 mM.
Take HcdE (Pseudomonas mandelii): the Km in data set [1] turned out to be 20 µM.

These data come from article PMC7913881, “The First Step of Biodegradation of 7-Hydroxycoumarin in Pseudomonas mandelii 7HK4 Depends on an Alcohol Dehydrogenase-Type Enzyme” (International Journal of Molecular Sciences, 2021).
